Measurements taken from article PMC11855866 (International Journal of Molecular Sciences, 2025).
≈ marks a conversion by molar mass, not a printed value. Like-named read-outs stand apart in the source and are kept apart here.

How the values were obtained:
[1] = system: HepG2 cells; assay: MTT cytotoxicity / synergy assay, 72 h, HepG2
Method: (§1) The synergistic effects of drug combinations were studied in various cancer cell lines, including MCF-7 (human breast cancer), A549 (human lung cancer), U-87 MG (human malignant glioma), HepG2 (human liver cancer), and HUH7 (human liver cancer). HMEC-1, an immortalized human microvascular endothelial cell line, was used as a model for normal cells. All cell lines were purchased from ATCC (Rockville, MD, USA).
(§2) The cancer cell lines were cultured in Dulbecco’s Modified Eagle’s Medium (DMEM; Sigma-Aldrich) supplemented with 10% FBS and 1% penicillin/streptomycin mixture (10,000 U/mL penicillin and 10 mg/mL streptomycin; Sigma-Aldrich) at 37 °C in a humidified atmosphere with 5% CO2.
(§3) For the MTT assay, exponentially growing cells were seeded into 96-well plates at a density of 5 × 10³ cells per well. After 24 h of incubation, the medium was replaced with 100 µL of fresh medium containing the tested compounds. After 72 h of treatment, cell viability was assessed using the MTT assay as described earlier. […] IC50 values were calculated using GraphPad Prism 9 software (GraphPad Software).

[2] = parameters: method as in Figure S2 [39–71]; conditions: ref Figure S2 [39–71]; cited from earlier work
[3] = DLS particle size measurements; assay type: physicochemical; conditions: 100–500 µM CHLO, […] BSA, 0.05% Tween-80
Method: Dynamic light scattering (DLS) measurements were performed using a Zetasizer Nano ZS instrument (Malvern Instruments, Malvern, UK). Samples of 2 mL were placed in disposable PMMA cuvettes (cat. #634-0677; VWR, Gdańsk, Poland) and measured at 37 °C. To ensure accuracy, each sample was measured at least three times. The data were processed using DTS v6.2 software (Malvern Instruments).

[4] = Hemolysis (Drabkin's method); assay type: cell-based; conditions: human, washed erythrocyte (RBC) suspension, 40% hematocrit, pH 7.4, single drug, RT, dark, CTRL− 11.6%
Method: Blood samples were collected from healthy human volunteers into Vacutainer tubes containing 3% sodium citrate (BD Biosciences, Warsaw, Poland). Whole blood was centrifuged at 1500 rpm (RCF = 214 g) for 10 min in a CompactStar CS4 centrifuge (VWR) at RT to separate erythrocytes, which were washed twice with PBS (pH 7.4) and centrifuged at 1500 rpm for 5 min at RT after each wash. Hematocrit was measured to adjust the final RBC concentration in PBS (pH 7.4) to 40%. The drugs were then dissolved in the RBC suspension at the final concentrations outlined in Figure 8. RBCs incubated in dH2O were used as a positive control (100% hemolysis), while RBCs in PBS were used as the negative control. A blank sample of PBS without RBCs or drugs provided a baseline for absorbance measurements. Experimental samples, along with positive, negative, and vehicle (0.5% DMSO) controls, were incubated for 4 h at RT in the dark. After incubation, the samples were centrifuged at 1500 rpm for 5 min at RT, and the supernatant was collected to measure hemoglobin release using Drabkin’s method. Absorbance was measured at 540 nm with a Jenway 6305 UV/Vis spectrophotometer (Bibby Scientific, Staffordshire, UK). This study was conducted in triplicate. The percentage of hemolysis was calculated by comparing the absorbance at 540 nm (OD540) of the test sample with that of the positive control using the following formula:(2) % Hemolysis=OD540Test−OD540(Blank)/OD540Total Lysis−OD540(Blank)×100%

[5] = system: A549, HepG2, MCF-7, and U-87MG; assay: Doxorubicin accumulation assay, sensitive cell lines; assay type: cell-based, human
Method: Cells were seeded at a density of 2 × 10^4 cells per well in black 96-well plates as described in Section 3.6.

[6] = system: HMEC-1 cells; assay: MTT cytotoxicity / synergy assay, 72 h, HMEC-1; conditions: read-out: IC50 Value in Specific Cell Line, HMEC-1; for CC50: Homo sapiens, HMEC-1, 72 h
Method: as §1, §2, §3

[7] = system: HSA; parameters: method as in Figure S2 [39–71]; conditions: ref Figure S2 [39–71]; cited from earlier work
[8] = system: MCF-7 cells; assay: MTT cytotoxicity / synergy assay, 72 h, MCF-7; assay type: cell-based, human; conditions: 72 h; for decrease in cell viability caused by 0.05% Tween-80: with vs. without 0.05% Tween-80; for IC50: MTT, n.d. = IC50 not achieved within concentrations tested, read-out: IC50 Value in Specific Cell Line, MCF-7
Method: Stock solutions of the tested compounds were first prepared in DMSO at 200-fold the intended final concentration. […] The cells were treated for 72 h under the same conditions.
Following treatment, 25 μL of MTT solution was added to each well, and the plates were incubated for 2 h at 37 °C. […] IC₅₀ values, indicating the concentration required to reduce cell viability by 50% compared to untreated controls (set as 100% viability), were calculated using GraphPad Prism 9 software (GraphPad Software, San Diego, CA, USA). All data from this preliminary cytotoxic assay were analyzed by ANOVA followed by Tukey’s post hoc test for multiple comparisons, with significance set at p < 0.05. A similar statistical approach was used for the rest of the experimental work presented in this study.

[9] = system: A549 cells; assay: MTT cytotoxicity / synergy assay, 72 h, A549; conditions: Homo sapiens, A549, 72 h, read-out: IC50 Value in Specific Cell Line, A549
Method: as §1, §2, §3

[10] = system: HuH7 cells; assay: MTT cytotoxicity / synergy assay, 72 h, HuH7; conditions: Homo sapiens; for IC50: Huh-7, 72 h, read-out: IC50 Value in Specific Cell Line, HuH7
Method: as §1, §2, §3

[11] = system: HepG2 cells; conditions: human
Method: as §1, §2, §3

[12] = system: A549 cells; conditions: human
Method: as §1, §2, §3

[13] = system: U-87MG cells; assay: MTT cytotoxicity / synergy assay, 72 h, U-87MG; assay type: cell-based; conditions: Homo sapiens, n.d. = IC50 not achieved within concentrations tested, read-out: IC50 Value in Specific Cell Line, U-87MG
Method: as §1, §2, §3

[14] = system: MRP1; conditions: cited from earlier work
[15] = target: BSA; parameters: method as in PMID 29772022; conditions: read-out: Kd (binding to BSA); cited from earlier work
[16] = system: mammary tumors; conditions: 20 days; GLIB 0.06 mg/kg/day orally, tamoxifen 1 mg/kg/day s.c.; cited from earlier work
[17] = system: mammary tumors; conditions: 20 days; GLIB 0.06 mg/kg/day orally, tamoxifen 1 mg/kg/day s.c.; cited from earlier work; remark: listed apart in the source
[18] = system: MCF-7 cells; conditions: read-out: IC50 value, MCF-7; cited from earlier work
[19] = Analysis of drug stability in PBS; assay type: physicochemical; conditions: equimolar mixtures with DOXO, PBS (pH 7.4), 37 °C, 7 to 14 days
Method: The samples were prepared in PBS (pH 7.4) containing 0.05% (v/v) Tween-80 and 0.5% (v/v) DMSO. […] The samples were placed into 2 mL HPLC vials, sealed, and incubated at 37 °C for 7 to 14 days. Every 24 h, 20 µL aliquots were taken for HPLC analysis.

[20] = system: 4T1 breast cancer and B16F10 melanoma xenografts; conditions: 4T1, B16F10 xenografts, MMTV-PyMT; cited from earlier work
[21] = Homo sapiens, HepG2, 72 h, read-out: IC50 Value in Specific Cell Line, HepG2

CCCCNC(=O)NS(=O)(=O)c1ccc(N)cc1 [CARB, Carbutamide]
IC50 [1, 21]: 70.7 ± 1.4 µM

CCCNC(=O)NS(=O)(=O)c1ccc(Cl)cc1 [CHLO, Chlorpropamide]
IC50 ([1]; Homo sapiens, HepG2, 72 h, read-out: IC50 Value in Specific Cell Line, HepG2, MTT, 72 h, n.d. = IC50 not achieved within concentrations tested): 480 ± 54.1 µM | solubility [2]: 1000 µM (≈ 277 µg/mL) | aggregate formation [3]: do not form aggregates | hemolysis at 4 h [4]: 11.2 to 11.9% | increase of DOXO levels [5]: up to 2.3 times | CC50 [6]: 218.2 ± 1.6 µM | nKa (global affinity constant, HSA) [7]: 62000 M⁻¹ | decrease in cell viability caused by 0.05% Tween-80 [8]: 3.2% | IC50 ([8]; Homo sapiens, MCF7, 72 h): > 500 µM

COc1cccc2c1C(=O)c1c(O)c3c(c(O)c1C2=O)C[C@@](O)(C(=O)CO)C[C@@H]3O[C@H]1C[C@H](N)[C@H](O)[C@H](C)O1 [DOXO, Doxorubicin]
IC50 [9]: 0.27 ± 0.02 µM | IC50 [1, 21]: 0.3 ± 0.01 µM | IC50 [10]: 0.28 ± 0.02 µM | viability at 0.65 µM ([10]; Huh-7, read-out: HuH7 cell viability): 53.5 ± 0.4% | HepG2 cell viability [11]: 0.695 ± 0.003 | hemolysis at 4 h [4]: 32.3% | CC50 [6]: 0.08 ± 0.01 µM | A549 cell viability [12]: 0.643 ± 0.002 | decrease in cell viability caused by 0.05% Tween-80 [8]: 12.6% | IC50 ([8]; Homo sapiens, MCF7): 0.46 ± 0.06 µM | IC50 [13]: 0.57 ± 0.11 µM

COc1ccc(Cl)cc1C(=O)NCCc1ccc(S(=O)(=O)NC(=O)NC2CCCCC2)cc1 [GLIB, Glibenclamide]
concentration increasing intracellular accumulation of calcein [14]: ≥ 3.12 µM | IC50 [10]: 493.2 ± 1.3 µM | Kd [15]: 0.67 µM | tumors responded (regressed or remained stable) [16]: 64% | CC50 [6]: 248 ± 3.6 µM | tumors responded [17]: no response | IC50 [18]: 325 µM

Cc1ccc(S(=O)(=O)NC(=O)NN2CC3CCCC3C2)cc1 (stereo not shown) [GLIC, Gliclazide]
Kd [15]: 155 µM | stability [19]: slow but noticeable degradation | CC50 [6]: 447.7 ± 2.3 µM | IC50 ([8]; Homo sapiens, MCF7, 72 h): 87.9 µM | IC50 [18]: 216 µM

Cc1cnc(C(=O)NCCc2ccc(S(=O)(=O)NC(=O)NC3CCCCC3)cc2)cn1 [GLIP, Glipizide]
IC50 [1, 21]: 229 ± 10.9 µM | IC50 [10]: 421.9 ± 0.5 µM | effect on tumor growth and metastasis [20]: inhibited tumor growth and metastasis | CC50 [6]: 454.1 ± 1.8 µM | IC50 ([8]; Homo sapiens, MCF7): 339 ± 18.8 µM

COc1ccc2c(c1)C(=O)N(CCc1ccc(S(=O)(=O)NC(=O)NC3CCCCC3)cc1)C(=O)C2(C)C [GLIQ, Gliquidone]
IC50 [9]: 259 ± 16.3 µM | IC50 [1, 21]: 39.6 ± 2.6 µM | IC50 [10]: 400.7 ± 2.2 µM | hemolysis at 4 h [4]: 11.2 to 11.9% | increase of DOXO levels [5]: up to 2.3 times | CC50 [6]: 157 ± 2.2 µM | IC50 ([8]; Homo sapiens, MCF7): 68.8 ± 2.5 µM | IC50 [13]: 57.1 ± 1.8 µM

COCCCNC(=O)NS(=O)(=O)c1ccc(C)cc1 [MESU, N-(3-methoxy-propyl)-N’-(toluene-4-sulfoyl)-urea]
IC50 ([1]; read-out: IC50 Value in Specific Cell Line, HepG2, MTT, 72 h, n.d. = IC50 not achieved within concentrations tested): 63.1 ± 0.3 µM | IC50 ([6]; MTT, 72 h, n.d. = IC50 not achieved within concentrations tested): 78.3 ± 2.4 µM | IC50 [8]: 495.9 ± 0.8 µM

Cc1ccc(S(=O)(=O)NC(=O)NN2CCCCCC2)cc1 [TOLA, Tolazamide]
IC50 [1, 21]: 470 ± 12.4 µM | stability [19]: slow but noticeable degradation | CC50 [6]: 468.6 ± 0.5 µM

CCCCNC(=O)NS(=O)(=O)c1ccc(C)cc1 [TOLB, Tolbutamide]
IC50 [1, 21]: 232 ± 21.6 µM | CC50 [6]: 88.2 ± 4.1 µM | IC50 ([8]; Homo sapiens, MCF7): 461 ± 53.9 µM

CC/C(=C(\c1ccccc1)c1ccc(OCCN(C)C)cc1)c1ccccc1 [tamoxifen]
tumors responded (regressed or remained stable) [16]: 57% | tumors responded [17]: 75%

Tween-80
concentration above which survival of MCF-7 cells is significantly reduced [8]: above 0.05 % (v/v)
